Data from patent publication US7053188B2, “Monoclonal antibodies specific for neoplasia-specific NADH:disulfide reductase” (Purdue Research Foundation, priority 2002, dated 2006).

Tests used:
[1] = tested on: NADH oxidase of HeLa plasma membranes; conditions: background statement; cited from earlier work
[2] = tested on: tTIP; experiment: Direct assay of tTIP activity of HeLa plasma membranes with DTNA substrate; assay type: biochemical, human; conditions: no antibody
[3] = tested on: tNOX; experiment: NADH oxidase (NOX) activity of pooled sera of cancer patients; assay type: biochemical, human; conditions: no MAB
Method: (§1) Pooled sera. Pooled sera were collected from the patient population of the Michiana Hematology-Oncology Clinic, South Bend, Ind. and from the patient population of St. Elizabeth Hospital of Lafayette, Ind. Only cancer patients with active disease (Stage III or Stage IV) were identified at the time of collections. Sera were frozen after collection and stored frozen at −20° C. Prior to assay, samples were thawed and maintained at 4° C. between thawing and assay.
Spectrophotometric tNOX Assay. NADH oxidase activity was determined as the disappearance of NADH measured at 340 nm with 430 nm as reference using an SLM Aminco (Lake Forest, Calif.) DW-2000 spectrophotometer in the dual wavelength mode of operation or a Hitachi (Tokyo, Japan) U3210 spectrophotometer at 340 nm with continuous recording over 5 or 10 min intervals once steady-state rates were obtained. […] To determine capsaicin inhibition, capsaicin in DMSO was added to a final concentration of 1 μM (0.1% DMSO) and the rate of NADH oxidation determined over 10 min. […]
(§2) NADH oxidase activity can also be measured using an Hitachi (Tokyo, Japan) U3210 spectrophotometer over 5 min intervals at 37° C. The activity was determined as the disappearance of NADH measured at 340 nm. […]

[4] = tested on: NADH oxidase of normal sera; experiment: NADH oxidase (NOX) activity of pooled sera of normal volunteers; assay type: biochemical, human
Method: as §1
(§3) Spectrophotometric tNOX Assay. NADH oxidase activity was determined as the disappearance of NADH measured at 340 nm with 430 nm as reference using an SLM Aminco (Lake Forest, Calif.) DW-2000 spectrophotometer in the dual wavelength mode of operation or a Hitachi (Tokyo, Japan) U3210 spectrophotometer at 340 nm with continuous recording over 5 or 10 min intervals once steady-state rates were obtained. The reaction mixture contained 50 mM Tris-Mes buffer (pH 7.0), 2 mM KCN to inhibit any potential mitochondrial oxidase activity, and 150 μM NADH in a total volume of 2.5 ml. Assay was at 37° C. with constant stirring. With purified fractions, 1 μM reduced glutathione was added to reduce the protein in the presence of substrate and human serum albumin, 0.1 mg/ml, as a protein source of thiols. After 10 min, 0.03% hydrogenperoxide was added (or oxidized glutathione) to reoxidize the protein under renaturing conditions and in the presence of substrate to start the reaction. A millimolar extinction coefficient of 6.22 was used to determine NADH disappearance. To determine capsaicin inhibition, capsaicin in DMSO was added to a final concentration of 1 μM (0.1% DMSO) and the rate of NADH oxidation determined over 10 min. Capsaicin at a final concentration of 100 μM (0.2% DMSO) was then added and the assay was continued for an additional 10 min.
as §2

[5] = tested on: tNOX; experiment: Immunoprecipitation of tNOX with MAB 12.1, supernatant activity assayed; assay type: biochemical, human; conditions: Preimmune
Method: Spectrophotometric tNOX Assay. NADH oxidase activity was determined as the disappearance of NADH measured at 340 nm with 430 nm as reference using an SLM Aminco (Lake Forest, Calif.) DW-2000 spectrophotometer in the dual wavelength mode of operation or a Hitachi (Tokyo, Japan) U3210 spectrophotometer at 340 nm with continuous recording over 5 or 10 min intervals once steady-state rates were obtained. The reaction mixture contained 50 mM Tris-Mes buffer (pH 7.0), 2 mM KCN to inhibit any potential mitochondrial oxidase activity, and 150 μM NADH in a total volume of 2.5 ml. Assay was at 37° C. with constant stirring. With purified fractions, 1 μM reduced glutathione was added to reduce the protein in the presence of substrate and human serum albumin, 0.1 mg/ml, as a protein source of thiols. After 10 min, 0.03% hydrogenperoxide was added (or oxidized glutathione) to reoxidize the protein under renaturing conditions and in the presence of substrate to start the reaction. A millimolar extinction coefficient of 6.22 was used to determine NADH disappearance. To determine capsaicin inhibition, capsaicin in DMSO was added to a final concentration of 1 μM (0.1% DMSO) and the rate of NADH oxidation determined over 10 min. Capsaicin at a final concentration of 100 μM (0.2% DMSO) was then added and the assay was continued for an additional 10 min. Immunoprecipitation. […]

[6] = tested on: tTIP; experiment: tTIP activity of sera of cancer patients, dithio-dipyridyl substrate; assay type: biochemical, human; conditions: Breast CA sera, without MAB 12.1
Description: An alternative assay procedure is the use of a dithio-dipyridyl substrate as described in Morré et al. (1999) Mol. Cell. Biochem. 207:7-13.

[7] = tested on: NADH oxidase of HeLa plasma membranes; experiment: NADH oxidase activity of HeLa S plasma membranes; assay type: biochemical, human; conditions: 37° C.
Method: as §3

[8] = cells incubated in 0.1 M sodium acetate, pH 5, 2 h
[9] = cells incubated in PBS, pH 7, 2 h

SMILES: Cc1ccc(S(=O)(=O)NC(=O)Nc2ccc(Cl)cc2)cc1 [LY181984]
- ability of HeLa plasma membrane vesicles to oxidize NADH (in words) [1]: partially inhibited

SMILES: O=C(O)c1ccc(SSc2ccc(C(=O)O)cn2)nc1 [DTNA, 6,6′-dithionicotinic acid]
- Km [2]: 1500 µM
- VMAX ([2]; estimated): 1.5 nmoles/min/mg protein

SMILES: COc1cc(CNC(=O)CCCC/C=C/C(C)C)ccc1O [capsaicin, 8-methyl-N-vanillyl-6-noneamide]
- NOX activity of sera, +1 μM Cap ([3]; 1 μM capsaicin): 1.0 ± 0.13
- NOX activity of sera, + μM Cap ([3]; capsaicin (concentration not given)): 1.0 ± 0.17
- NADH oxidation by pooled sera from normal patients (in words) ([4]; capsaicin 1 to 100 μM): not inhibited
- NOX activity of sera, +1 μM Cap ([4]; normal sera, no MAB, 1 μM capsaicin): 0.7 ± 0.14
- NOX activity of sera, + μM Cap ([4]; normal sera, no MAB, capsaicin (concentration not given)): 0.7 ± 0.16
- Supernatant activity, 1 μM capsaicin ([5]; 1 μM capsaicin): 0.6 ± 0.4 nmoles/min/100 μl serum
- Supernatant activity, 100 μM capsaicin ([5]; 100 μM capsaicin): 0.5 nmoles/min/100 μl serum
- Capsaicin inhibition [6]: −0.6
- NADH oxidase activity, 1 μM capsaicin [7, 8]: 0.2 ± 0.01 nmoles/min/mg plasma membrane protein
- NADH oxidase activity, 100 μM capsaicin [7, 8]: 0.15 ± 0.02 nmoles/min/mg plasma membrane protein
- NADH oxidase activity, 1 μM capsaicin [7, 9]: 0.2 ± 0.02 nmoles/min/mg plasma membrane protein
- NADH oxidase activity, 100 μM capsaicin [7, 9]: 0.2 ± 0.02 nmoles/min/mg plasma membrane protein
- ability of HeLa plasma membrane vesicles to oxidize NADH (in words) [1]: partially inhibited
